From patent US20230142542A1, “USE OF SUBSTITUTED 1,2,4-OXADIAZOLES FOR COMBATING PHYTOPATHOGENIC FUNGI” (BASF SE, priority 2020, published 2023) come the findings set out here.

Molecules are shown by their SMILES.

The melting point is the temperature, or range, at which the solid turns liquid. In turn, `O=C(O)C(F)(F)c1ccc(-c2noc(C(F)(F)F)n2)cc1` [I-2, 2,2-difluoro-2-[4-[5-(trifluoromethyl)-1,2,4-oxadiazol-3-yl]phenyl]acetic acid] came in with a melting point of 119 to 121 °C.
